Measured values taken from ChEMBL document CHEMBL3585338, “2-Hydroxy-3,4-naphthochalcone (2H-NC) inhibits TNFα-induced tumor invasion through the downregulation of NF-κB-mediated MMP-9 gene expression” (Bioorg Med Chem Lett, 2014).
Activity calls are given as the source filed them.

Key:
Format in all cases: cell-based
[1] = target: Transcription factor p65 (Homo sapiens) (UniProt Q04206); assay: Inhibition of TNF-alpha-induced Rel-A phosphorylation at Ser536 in human MDA-MB-231 cells after 60 mins by immunoblot analysis
[2] = target: Transcription factor p65 (Homo sapiens) (UniProt Q04206); assay: Inhibition of TNF-alpha-induced Rel-A nuclear translocation in human MDA-MB-231 cells assessed as decrease in Rel-A phoshorylation at Ser536 at 20 uM pretreated for 30 mins prior to TNF-alpha stimulation measured after 60 mins by immunofluorescence microscopic analysis
[3] = target: Inhibitor of NF-kappa-B kinase alpha/beta (Homo sapiens) (UniProt O14920+O15111); assay: Inhibition of TNF-alpha-induced IKKalpha/beta phosphorylation at Ser176/180 in human MDA-MB-231 cells after 20 mins by immunoblot analysis

Measured: inhibition

Transcription factor p65 (Homo sapiens), sequence (Q04206 whole entry): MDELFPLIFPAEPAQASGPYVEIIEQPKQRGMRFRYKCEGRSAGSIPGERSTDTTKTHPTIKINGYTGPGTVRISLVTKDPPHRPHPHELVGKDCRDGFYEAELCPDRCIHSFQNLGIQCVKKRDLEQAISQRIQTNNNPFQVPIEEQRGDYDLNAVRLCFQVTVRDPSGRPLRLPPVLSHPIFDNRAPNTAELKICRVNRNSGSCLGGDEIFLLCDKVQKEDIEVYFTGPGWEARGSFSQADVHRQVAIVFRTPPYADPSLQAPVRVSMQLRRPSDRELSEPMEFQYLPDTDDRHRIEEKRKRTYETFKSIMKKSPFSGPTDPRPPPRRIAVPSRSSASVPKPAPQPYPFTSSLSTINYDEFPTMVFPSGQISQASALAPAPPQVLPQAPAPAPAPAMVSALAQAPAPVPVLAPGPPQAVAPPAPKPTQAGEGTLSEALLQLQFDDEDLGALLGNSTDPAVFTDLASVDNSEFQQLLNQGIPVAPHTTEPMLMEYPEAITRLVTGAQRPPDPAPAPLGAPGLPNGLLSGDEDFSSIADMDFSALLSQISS

O=C(/C=C/c1ccccc1)c1ccc2ccccc2c1O
active: [1] Dose-dependent effect | [2] | [3] Dose-dependent effect
